The source made the active and inactive calls.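 How the source made its calls: active means plate Z score at or below -3, or inhibition of at least 30% at 20 µM; inactive means the rest.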
Assay: EGFP reporter destabilization counter-screen – F442A EGFP cells, fluorescence, counter-screen for p/CIP destabilizer project, dose response (AID 2005);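 further: cells express EGFP alone from a CMV promoter as a counter screen for p/CIP-EGFP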
Conditions: F442A EGFP cells, EGFP fluorescence, 16 h, stronger effect = higher value

| SMILES | inhibition (EGFP decrease, at 10 µM) | inhibition (at 20 µM) |
| --- | --- | --- |
| C=CCCC(=O)N1CCCC(C(=O)c2cccc(OC)c2)C1 (stereo not given) | 20.8% | 2.3% (inactive) |
| O=C(CN1C(=O)c2ccccc2C1=O)N(CCO)Cc1ccccc1 | -7.7% | 16% (inactive) |
| COC(=O)c1cc(NC(=O)CSc2nc(C)cc(=O)[nH]2)cc(C(=O)OC)c1 | 9.8% | 23.4% (inactive) |
| Cc1cccc(C)c1OCc1cc(C(=O)N2CCCC2c2nonc2C)no1 (stereo not given) | 17.2% | 11.5% (inactive) |
| CC(=O)CC(=O)NC(=NC1CCCCC1)Nc1nc(C)cc(C)n1 | 14.7% | 5.7% (inactive) |
| Cc1cc(C)nc(Sc2ccc3nnc(C(F)(F)C(F)(F)C(F)(F)F)n3n2)n1 | 40.7% | 15.9% (inactive) |
| Cc1ccc(NC2=NC3(CCCCC3)N=C(N)N2)c(C)c1 | 32.9% | 41.8% |
| CCOC(=O)c1ccc(COC(=O)c2nonc2N)cc1 | 4.5% | 21.1% (inactive) |
| O=C(CC12CC3CC(CC(C3)C1)C2)NCCN1CCOCC1 | 9.3% | 25.4% (inactive) |
| CC(=O)N1[C@H](Cc2ccccc2)C=C[C@]1(C)C(=O)NCc1ccccn1 | -7.6% | 8.7% (inactive) |
| CS(=O)(=O)Nc1ccccc1C(=O)Nc1cc(Cl)cc(Cl)c1 | 19.6% | -18.3% (inactive) |
| CC(C(=O)N1c2ccccc2CCc2ccccc21)n1nnc(-c2ccc(N(C)C)cc2)n1 (stereo not given) | 15.2% | 6.8% (inactive) |
| Cn1c(O)c(C=NC2CCCCCC2)c(=O)[nH]c1=S | 0.3% | 7.6% (inactive) |
| O=C(Cn1c(=O)[nH]c2ccccc2c1=O)N1CCN(c2cccc(Cl)c2)CC1 | 17.8% | 20.5% (inactive) |
| COc1ccccc1CNC(=O)CCCC(=O)n1ncc2cc(C)ccc21 | -25.7% | 20.2% (inactive) |
| Cc1nc(NC(=O)CN2CCN(c3ccccc3F)CC2)sc1C(=O)N(C)C | 17% | 24.4% (inactive) |
| COc1ccc(CNC(=O)C(C)Cc2ccccc2)cc1O (stereo not given) | 24.1% | 14.7% (inactive) |
| Cc1ccc(S(=O)(=O)Oc2ccc(/C=N/NC(=O)c3nn(C)cc3Cl)cc2)cc1 | 17.3% | 17.2% (inactive) |
| O=C1c2ccccc2C(=O)C1c1ccc2ccccc2n1 | 1.9% | -11.6% (inactive) |
| CCC(CC)NC(=O)COC(=O)CCC(=O)c1ccc(Cl)cc1 | 5.2% | 24.9% (inactive) |

| SMILES | inhibition (EGFP decrease, at 10 µM) | inhibition (at 20 µM) |
| --- | --- | --- |
| Cc1ccccc1-c1cc2c(nn1)-c1ccccc1C2=O | 32.1% | 6.4% (inactive) |
| CC(=O)Nc1ccc(S(=O)(=O)Nc2nccs2)cc1 | 21.2% | 15.6% (inactive) |
| CC(C)CCN1C(=O)c2ccc(C(=O)NCC3CCCO3)cc2C1=O (stereo not given) | 8.4% | 3.8% (inactive) |
| Cc1nc(SCC(=O)Nc2cc(C)on2)c2c(=O)n(C)c(=O)n(C)c2n1 | 10% | 6.6% (inactive) |
| Cc1nc2c(=O)n(C)c(=O)nc-2n(C)n1 | 54.2% | 34.4% |
| Cn1nc(-c2ccccn2)nc2c(=O)n(C)c(=O)nc1-2 | 61.5% | 45.6% |
| CN(Cc1ccco1)C(=O)C1CCC(=O)N(CCc2cccc(F)c2)C1 (stereo not given) | 5.1% | 1.2% (inactive) |
| Cn1c(NC(=O)c2cccnc2)nc2ccccc21 | -33.6% | -0.5% (inactive) |
| NC(=O)C1CCCCc2c1[nH]c1ccc(Cl)cc21 (stereo not given) | 16.2% | 7.6% (inactive) |
| O=c1nc2n(c3ccc([N+](=O)[O-])cc13)CCCCC2 | 39% | 29.5% (inactive) |
| CCc1ccc(CN2CCC(n3nccc3NC(=O)c3ccccc3C)CC2)cc1 | 22.7% | -0.4% (inactive) |
| CCOC(=O)c1c(C)n(C)c2cc(OCCN(CC)CC)ccc12 | -6% | 8.6% (inactive) |
| S=C(NNC(=S)Nc1ccccc1)Nc1ccccc1 | -6.9% | 16.7% (inactive) |
| Nc1cc(=O)[nH]c(SCC(=O)Nc2cccnc2Cl)n1 | 18.4% | -7.6% (inactive) |
| Cc1cc2c(c(Sc3ccccc3)n1)C(=O)OC2 | -4% | -3.5% (inactive) |
| Cc1ccc(-c2nc(-c3cccnc3)no2)c(C)c1 | 18.1% | 31.1% |
| O=C(Nc1nc(-c2ccccc2)cs1)C1CCCCN1S(=O)(=O)c1ccccc1 (stereo not given) | 15% | 8.6% (inactive) |
| CN(C)N=C1c2cc(S(=O)(=O)N(C)C)ccc2-c2ccc(S(=O)(=O)N(C)C)cc21 | 2.3% | 6.6% (inactive) |
| COC(=O)Cn1cc(C(=O)c2cccs2)c2ccccc21 | 27.1% | 14.5% (inactive) |
| Cc1ccc(-n2ncc(Br)c(Br)c2=O)cc1 | 9.4% | -1.3% (inactive) |
